Assay results from patent US12201621B2, “Base and pharmaceutical composition containing it” (BIOTTS S.A., priority 2019, dated 2025).
Structures can show the parent of a compound that is named as a salt. Where two headings read alike, the source gives them in different places. One block for each compound: values may come before it.

Columns and labels:
[1] = cited from earlier work
[2] = in vivo; cited from earlier work
[3] = pharmacokinetics and bioavailability after intravenous and topical administration; assay type: in vivo, Goetingen mini-pigs; conditions: intravenous administration at 1 mg/kg
[4] = in vivo; cited from earlier work; remark: listed apart in the source
[5] = cited from earlier work; remark: listed apart in the source

Structure (SMILES): CCCCNc1ccc(C(=O)OCCN(C)C)cc1 [Tetracaine Hydrochloride]
Water solubility [1]: 150 mg/mL

clearance (printed: purified) [3]: highly purified
distribution (printed: dispersed) [3]: highly dispersed
Structure (SMILES): CCCCNc1ccc(C(=O)OCCN(C)C)cc1 [tetracaine, Tetracaine]
hydrolysis in plasma [2]: rapid

Structure (SMILES): CCN(CC)CC(=O)Nc1c(C)cccc1C [lidocaine, Lidocaine]
absorbed from the gastrointestinal tract [4]: 30-40%
excreted by the kidneys unchanged [4]: 10%
extension of the effect ([5]; addition of epinephrine (5 μg/ml)): 50%
duration of effect ([5]; aerosol): 5 to 6 min
onset of effect ([5]; aerosol): 1 min
duration of anti-arrhythmic effect ([5]; endotracheal administration): 30 to 50 min
onset of anti-arrhythmic effect ([5]; endotracheal administration): 10 to 15 s
time to peak anti-arrhythmic effect ([5]; endotracheal administration): 1 to 2 min
duration of effect ([5]; epidural administration): up to 4 hours
onset of effect ([5]; epidural administration): 5 to 15 min
duration of effect ([5]; gel): 30 to 60 min
onset of effect ([5]; gel): 2 to 3 min
duration of anti-arrhythmic effect ([5]; i.v. administration): 10 to 20 min
onset of anti-arrhythmic effect ([5]; i.v. administration): 45 to 90 s
duration of effect ([5]; infiltration anesthesia): 30 to 60 min
onset of effect ([5]; infiltration anesthesia): 0.5 to 1 min
